The text below walks through data of article PMC9986306, “Beyond CBD: Inhibitory effects of lesser studied phytocannabinoids on human voltage-gated sodium channels” (Frontiers in Physiology, 2023).

As a reminder, the IC50 is the concentration that inhibits the measured activity by half.

In test [1] the target is T1, human NaV1.6 channel (SCN8A, CHO cells) (Homo sapiens, UniProt Q9UQD0).
T1 construct: expressed in transfected cells
Nature of the test: Planar patch-clamp, inhibition of peak sodium current (IC50 protocol). Format: cell-based. Conditions: mean ± SEM. Here is the method:
(§1) HEK293T cells stably expressing SCN1A or SCN2A and CHO cells stably expressing SCN8A or SCN9A were maintained as previously described ([Richards et al., 2018]; [Milligan et al., 2022]).
(§2) Patch-clamp recordings were made using a Patchliner® (Nanion Technologies, Munich, Germany) in the whole-cell configuration as previously described ([Richards et al., 2018]; [Milligan et al., 2022]). Briefly, cells were prepared in suspension at a density of 1 × 10^6-5 × 10^7 cells/mL. The external recording solution comprised (in mM): 140 NaCl, 4 KCl, 1 MgCl2, 2 CaCl2, 5 D-glucose, 10 HEPES, pH 7.4 with NaOH, ∼295 mOsm. The internal recording solution comprised (in mM): 50 CsCl, 60 CsF, 10 NaCl, 20 EGTA, 10 HEPES, pH 7.2 with CsOH, ∼285 mOsm. Medium single-hole planar NPC-16 chips with an average resistance of ∼2.5 MΩ were used. Chip and whole-cell capacitance were fully compensated, and 50% series resistance compensation applied. Recordings were acquired at 50 kHz with the low pass filter set to 10 kHz in PATCHMASTER (HEKA Instruments, NY, United States) and performed at 27°C. Offline analysis was performed using Microsoft Excel, MatLab R2019a (MathWorks) and GraphPad Prism 8 (Molecular Devices).
To determine half-maximal inhibitory concentrations (IC50), cells were held at −80 mV, stepped to −120 mV for 200 ms followed by 50 ms test depolarization to 0 mV every 2 s for 30 s in the presence of vehicle control (DMSO). The cells were then exposed to an individual phytocannabinoid (CBD, CBGA, CBDVA, CBG, CBCA or CBC) at concentrations between 0.1 and 100 μM, sequentially for 5 min. Currents for individual cells were averaged over 24 s periods directly before application and following a 5 min exposure of compound. Leak subtraction was applied before normalization of current amplitude. Normalized mean data were fit to the Hill equation.
In general terms: The patch-clamp technique gives a direct electrical read-out from membranes.

For test [2], the system named is NaV1.1, NaV1.2, NaV1.6 and NaV1.7 channels. Briefly: Planar patch-clamp, IC50 values summarised across the four isoforms. Format: cell-based, human. The following applies: range over NaV1.1, NaV1.2, NaV1.6, NaV1.7; read-out: IC50 values determined here (range over isoforms). The protocol: as §1
as §2, with “Devices). […]” for “Devices).”

For test [3], the system named is Scn1a+/− mouse model of DS. Details: method as in Anderson et al., 2021a; Anderson et al., 2021b. The following applies: Scn1a+/− mice, ref Anderson et al., 2021a, 2021b; cited from earlier work.
Another test concerns 6-Hz acute seizure model. Details: method as in Anderson et al., 2021b. The following applies: monotherapy; ref Anderson et al., 2021b; cited from earlier work.

SMILES strings stand for the structures.

T1 sequence (Q9UQD0 whole entry): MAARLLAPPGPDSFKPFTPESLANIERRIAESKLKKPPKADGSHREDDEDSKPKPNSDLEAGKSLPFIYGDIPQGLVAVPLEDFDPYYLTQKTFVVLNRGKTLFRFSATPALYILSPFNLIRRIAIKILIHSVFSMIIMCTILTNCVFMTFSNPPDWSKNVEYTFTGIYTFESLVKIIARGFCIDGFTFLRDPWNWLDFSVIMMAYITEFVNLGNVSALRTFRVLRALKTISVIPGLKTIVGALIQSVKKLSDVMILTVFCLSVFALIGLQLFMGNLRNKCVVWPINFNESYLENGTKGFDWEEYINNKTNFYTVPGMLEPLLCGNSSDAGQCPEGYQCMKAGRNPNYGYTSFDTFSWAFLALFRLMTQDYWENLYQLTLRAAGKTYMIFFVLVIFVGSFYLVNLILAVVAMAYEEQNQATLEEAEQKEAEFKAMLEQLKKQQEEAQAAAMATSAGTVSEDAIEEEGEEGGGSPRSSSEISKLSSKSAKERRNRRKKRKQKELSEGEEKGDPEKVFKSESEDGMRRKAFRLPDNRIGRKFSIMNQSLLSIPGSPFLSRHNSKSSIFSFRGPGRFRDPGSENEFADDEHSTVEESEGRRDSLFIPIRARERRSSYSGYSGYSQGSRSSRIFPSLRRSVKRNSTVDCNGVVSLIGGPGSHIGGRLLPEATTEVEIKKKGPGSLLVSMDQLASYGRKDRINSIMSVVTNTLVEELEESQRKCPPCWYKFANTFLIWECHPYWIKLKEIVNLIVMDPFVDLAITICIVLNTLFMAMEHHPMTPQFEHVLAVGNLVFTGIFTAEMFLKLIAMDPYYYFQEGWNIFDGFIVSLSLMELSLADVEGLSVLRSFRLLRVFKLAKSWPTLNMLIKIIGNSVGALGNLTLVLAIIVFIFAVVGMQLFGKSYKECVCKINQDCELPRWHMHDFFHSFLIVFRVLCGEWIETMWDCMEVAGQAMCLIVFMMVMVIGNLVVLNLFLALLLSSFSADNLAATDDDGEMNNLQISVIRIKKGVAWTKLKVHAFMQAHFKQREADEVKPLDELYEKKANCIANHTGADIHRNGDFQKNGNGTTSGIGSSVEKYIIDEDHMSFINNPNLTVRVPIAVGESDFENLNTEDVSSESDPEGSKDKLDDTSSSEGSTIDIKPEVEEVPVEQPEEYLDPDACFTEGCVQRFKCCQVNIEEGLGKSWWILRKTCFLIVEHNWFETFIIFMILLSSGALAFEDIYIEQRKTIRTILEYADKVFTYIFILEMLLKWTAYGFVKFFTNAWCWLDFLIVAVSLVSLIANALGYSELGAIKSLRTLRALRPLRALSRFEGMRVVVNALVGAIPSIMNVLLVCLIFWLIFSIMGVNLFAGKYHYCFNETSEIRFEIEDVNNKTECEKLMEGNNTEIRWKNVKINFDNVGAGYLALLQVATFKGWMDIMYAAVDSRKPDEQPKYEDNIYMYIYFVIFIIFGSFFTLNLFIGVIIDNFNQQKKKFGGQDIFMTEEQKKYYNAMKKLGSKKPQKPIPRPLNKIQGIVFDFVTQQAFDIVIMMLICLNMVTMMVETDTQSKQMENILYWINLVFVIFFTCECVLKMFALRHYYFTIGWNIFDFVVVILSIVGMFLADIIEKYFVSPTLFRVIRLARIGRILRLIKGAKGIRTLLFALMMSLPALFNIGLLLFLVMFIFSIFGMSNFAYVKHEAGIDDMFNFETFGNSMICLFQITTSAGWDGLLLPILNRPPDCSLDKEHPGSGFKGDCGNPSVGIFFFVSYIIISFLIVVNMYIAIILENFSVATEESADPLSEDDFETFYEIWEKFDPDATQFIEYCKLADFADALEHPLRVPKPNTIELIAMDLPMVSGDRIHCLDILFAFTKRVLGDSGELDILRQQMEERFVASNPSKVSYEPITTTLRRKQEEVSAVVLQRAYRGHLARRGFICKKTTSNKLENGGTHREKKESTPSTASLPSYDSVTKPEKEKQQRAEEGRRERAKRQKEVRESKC

Turning to `CCCCCc1cc(O)c(C/C=C(\C)CCC=C(C)C)c(O)c1C(=O)O` [CBGA, cannabigerolic acid], the “Slope (Hill slope coefficient)” value in test [1] (NaV1.6 concentration-response) is 2.3 ± 0.6. For the same molecule, the IC50 in test [1] (NaV1.6 peak current, 0.1–100 µM, 5 min exposure) was 12 ± 1.2 µM; in test [2], 12 to 16.4 µM. Moreover, the “Effect against hyperthermia-induced seizures” value in test [3] is “anti-convulsant properties”. Moreover, the “Effect in 6-Hz acute seizure model” value in the test on 6-Hz acute seizure model was “proconvulsive effects”.
